Holding throughout (format): functional
One experiment deals with Streptococcus agalactiae. Put plainly: Antimicrobial activity against Streptococcus agalactiae COH1 by broth microdilution assay. (In broth dilution the organism is exposed to a series of concentrations in liquid medium.)
The next experiment concerns Streptococcus pyogenes. Kind of experiment: Antimicrobial activity against Streptococcus pyogenes by broth microdilution assay.
For another experiment, the system named is Escherichia coli. Kind of experiment: Antimicrobial activity against Escherichia coli ATCC 25922 by broth microdilution assay.
The test system of a further experiment is Pseudomonas aeruginosa. Put plainly: Antimicrobial activity against Pseudomonas aeruginosa ATCC 27853 by broth microdilution assay.
For a further experiment, the system named is Staphylococcus aureus. Kind of experiment: Antimicrobial activity against methicillin-resistant Staphylococcus aureus ATCC 33591 by broth microdilution assay.
The subject of a further experiment is Enterococcus faecalis. Kind of experiment: Antimicrobial activity against Enterococcus faecalis ATCC 51299 by broth microdilution assay.
Where [1] appears, read: Streptococcus pyogenes, read-out: MIC.

The structures appear in SMILES notation. Converted amounts (≈) assume the structure as drawn. Peptide text beside a SMILES is read from it.

The term MIC denotes the lowest concentration found to suppress growth.

Take `CC(C)C[C@@H]1NC(=O)[C@H](CCC(N)=O)NC(=O)[C@H](CC(C)C)NC(=O)[C@@H]2CCCN2C(=O)[C@H](Cc2ccccc2)NC(=O)[C@H](C(C)C)NC(=O)[C@H](CCC(N)=O)NC(=O)[C@H](CC(C)C)NC(=O)[C@@H]2CCCN2C(=O)[C@H](Cc2ccccc2)NC1=O` (cyclo(FPLQLFPLQV)): the MIC in the experiment on Streptococcus agalactiae was 10 µg/mL (≈ 8.45 µM); in the experiment on Streptococcus pyogenes (setting [1]) it was 10 µg/mL (≈ 8.45 µM); with Escherichia coli it was > 100 µg/mL; with Pseudomonas aeruginosa, > 100 µg/mL; in the experiment with Staphylococcus aureus it was > 100 µg/mL; with Enterococcus faecalis, > 100 µg/mL.
For `CC(C)C[C@@H]1NC(=O)[C@H](CCC(N)=O)NC(=O)[C@H](C(C)C)NC(=O)[C@@H]2CCCN2C(=O)[C@@H](c2ccccc2)NC(=O)[C@H](CC(C)C)NC(=O)[C@H](CCC(N)=O)NC(=O)[C@H](C(C)C)NC(=O)[C@@H]2CCCN2C(=O)[C@@H](c2ccccc2)NC1=O`, the MIC against Streptococcus agalactiae was > 100 µg/mL; with Streptococcus pyogenes (setting [1]) it was 10 µg/mL (≈ 8.76 µM); against Escherichia coli it was > 100 µg/mL; against Pseudomonas aeruginosa it was > 100 µg/mL; in the experiment with Staphylococcus aureus, > 100 µg/mL; with Enterococcus faecalis, > 100 µg/mL.
As for `CC(C)C[C@@H]1NC(=O)[C@H](CCC(N)=O)NC(=O)[C@H](C(C)C)NC(=O)[C@@H]2CCCN2C(=O)[C@@H](Cc2c[nH]c3ccccc23)NC(=O)[C@H](CC(C)C)NC(=O)[C@H](CCC(N)=O)NC(=O)[C@H](C(C)C)NC(=O)[C@@H]2CCCN2C(=O)[C@@H](Cc2c[nH]c3ccccc23)NC1=O`, the MIC in the experiment on Streptococcus agalactiae, with Streptococcus pyogenes (setting [1]), with Escherichia coli, in the experiment with Pseudomonas aeruginosa, with Staphylococcus aureus and with Enterococcus faecalis was > 100 µg/mL throughout.
`CC(C)C[C@@H]1NC(=O)[C@@H]2CCCN2C(=O)[C@H](Cc2ccccc2)NC(=O)[C@H](C(C)C)NC(=O)[C@H](CCC(N)=O)NC(=O)[C@H](C(C)C)NC(=O)[C@@H]2CCCN2C(=O)[C@H](Cc2ccccc2)NC(=O)[C@H](C(C)C)NC(=O)[C@H](CCC(N)=O)NC1=O` (stereo in doubt; form 2) yielded an MIC in the experiment with Streptococcus pyogenes of 10 µg/mL (≈ 8.65 µM).
For `CC(C)[C@@H]1NC(=O)[C@H](CCC(N)=O)NC(=O)[C@H](C(C)C)NC(=O)[C@@H]2CCCN2C(=O)[C@H](Cc2ccccc2)NC(=O)[C@H](C(C)C)NC(=O)[C@H](CCC(N)=O)NC(=O)[C@H](C(C)C)NC(=O)[C@@H]2CCCN2C(=O)[C@H](Cc2ccccc2)NC1=O` (cyclo(FPVQVFPVQV)), the MIC against Streptococcus agalactiae, with Streptococcus pyogenes (setting [1]), against Escherichia coli, in the experiment with Pseudomonas aeruginosa, against Staphylococcus aureus and with Enterococcus faecalis was > 100 µg/mL in each case.
For `CC(C)C[C@@H]1NC(=O)[C@H](CCC(N)=O)NC(=O)[C@H](C(C)C)NC(=O)[C@@H]2CCCN2C(=O)[C@@H](Cc2ccc(F)cc2)NC(=O)[C@H](CC(C)C)NC(=O)[C@H](CCC(N)=O)NC(=O)[C@H](C(C)C)NC(=O)[C@@H]2CCCN2C(=O)[C@@H](Cc2ccc(F)cc2)NC1=O`, the MIC against Streptococcus agalactiae is > 100 µg/mL; with Streptococcus pyogenes (setting [1]), 10 µg/mL (≈ 8.3 µM); in the experiment with Escherichia coli, > 100 µg/mL; against Pseudomonas aeruginosa, > 100 µg/mL; in the experiment with Staphylococcus aureus, > 100 µg/mL; in the experiment on Enterococcus faecalis, > 100 µg/mL.
Turning to `CC(C)C[C@@H]1NC(=O)[C@H](CCC(N)=O)NC(=O)[C@H](C(C)C)NC(=O)[C@@H]2CCCN2C(=O)[C@H](Cc2ccccc2)NC(=O)[C@H](C(C)C)NC(=O)[C@H](CCC(N)=O)NC(=O)[C@H](C(C)C)NC(=O)[C@@H]2CCCN2C(=O)[C@H](Cc2ccccc2)NC1=O` (cyclo(FPVQLFPVQV)), the MIC is > 100 µg/mL against Streptococcus agalactiae; 10 µg/mL (≈ 8.65 µM) in the experiment on Streptococcus pyogenes (setting [1]); > 100 µg/mL with Escherichia coli; > 100 µg/mL in the experiment with Pseudomonas aeruginosa; > 100 µg/mL against Staphylococcus aureus; > 100 µg/mL with Enterococcus faecalis.
On to `CC(C)C[C@@H]1NC(=O)[C@H](CCC(N)=O)NC(=O)[C@H](C(C)C)NC(=O)[C@@H]2CCCN2C(=O)[C@@H](Cc2cccs2)NC(=O)[C@H](CC(C)C)NC(=O)[C@H](CCC(N)=O)NC(=O)[C@H](C(C)C)NC(=O)[C@@H]2CCCN2C(=O)[C@@H](Cc2cccs2)NC1=O`, for which the MIC against Streptococcus agalactiae, with Streptococcus pyogenes (setting [1]), in the experiment with Escherichia coli, in the experiment with Pseudomonas aeruginosa, with Staphylococcus aureus and in the experiment on Enterococcus faecalis was > 100 µg/mL in each case.
For the molecule `CC(C)C[C@@H]1NC(=O)[C@H](CCC(N)=O)NC(=O)[C@H](CC(C)C)NC(=O)[C@@H]2CCCN2C(=O)[C@H](Cc2ccccc2)NC(=O)[C@H](C(C)C)NC(=O)[C@H](CCC(N)=O)NC(=O)[C@H](C(C)C)NC(=O)[C@@H]2CCCN2C(=O)[C@H](Cc2ccccc2)NC1=O` (cyclo(FPLQLFPVQV)), the MIC is > 100 µg/mL against Streptococcus agalactiae; 10 µg/mL (≈ 8.55 µM) in the experiment on Streptococcus pyogenes (setting [1]); > 100 µg/mL in the experiment on Escherichia coli; > 100 µg/mL in the experiment on Pseudomonas aeruginosa; > 100 µg/mL against Staphylococcus aureus; > 100 µg/mL against Enterococcus faecalis.
`CC(C)C[C@@H]1NC(=O)[C@H](CCC(N)=O)NC(=O)[C@H](CC(C)C)NC(=O)[C@@H]2CCCN2C(=O)[C@H](Cc2ccccc2)NC(=O)[C@H](CC(C)C)NC(=O)[C@H](CCC(N)=O)NC(=O)[C@H](CC(C)C)NC(=O)[C@@H]2CCCN2C(=O)[C@H](Cc2ccccc2)NC1=O` (cyclo(FPLQLFPLQL)): the MIC in the experiment with Streptococcus agalactiae was > 100 µg/mL; in the experiment on Streptococcus pyogenes (setting [1]), 10 µg/mL (≈ 8.35 µM); against Escherichia coli, > 100 µg/mL; against Pseudomonas aeruginosa, > 100 µg/mL; against Staphylococcus aureus it was > 100 µg/mL; in the experiment with Enterococcus faecalis, > 100 µg/mL.
As to `CC(C)C[C@@H]1NC(=O)[C@@H]2CCCN2C(=O)[C@H](Cc2ccccc2)NC(=O)[C@H](C(C)C)NC(=O)[C@H](CCC(N)=O)NC(=O)[C@H](C(C)C)NC(=O)[C@@H]2CCCN2C(=O)[C@H](Cc2ccccc2)NC(=O)[C@H](C(C)C)NC(=O)[C@H](CCC(N)=O)NC1=O` (stereo in doubt; form 1), the MIC is > 100 µg/mL in the experiment on Streptococcus agalactiae; >100 µg/mL in the experiment on Streptococcus pyogenes; > 100 µg/mL in the experiment with Escherichia coli; > 100 µg/mL with Pseudomonas aeruginosa; > 100 µg/mL against Staphylococcus aureus; > 100 µg/mL in the experiment with Enterococcus faecalis.
In the case of `CC(C)C[C@@H]1NC(=O)[C@H](CCC(N)=O)NC(=O)[C@H](C(C)C)NC(=O)[C@@H]2CCCN2C(=O)[C@H](Cc2ccccc2)NC(=O)[C@H](CC(C)C)NC(=O)[C@H](CCC(N)=O)NC(=O)[C@H](C(C)C)NC(=O)[C@@H]2CCCN2C(=O)[C@H](Cc2ccccc2)NC1=O` (cyclo(FPVQLFPVQL)), the MIC is > 100 µg/mL with Streptococcus agalactiae; 10 µg/mL (≈ 8.55 µM) with Streptococcus pyogenes (setting [1]); > 100 µg/mL against Escherichia coli; > 100 µg/mL in the experiment on Pseudomonas aeruginosa; > 100 µg/mL in the experiment with Staphylococcus aureus; > 100 µg/mL in the experiment on Enterococcus faecalis.
`CC(C)C[C@@H]1NC(=O)[C@H](CCC(N)=O)NC(=O)[C@H](C(C)C)NC(=O)[C@@H]2CCCN2C(=O)[C@H](Cc2ccccc2)NC(=O)[C@H](C(C)C)NC(=O)[C@H](CCC(N)=O)NC(=O)[C@H](CC(C)C)NC(=O)[C@@H]2CCCN2C(=O)[C@H](Cc2ccccc2)NC1=O` (cyclo(FPLQVFPVQL)): the MIC with Streptococcus agalactiae is > 100 µg/mL; with Streptococcus pyogenes (setting [1]), 10 µg/mL (≈ 8.55 µM); against Escherichia coli, > 100 µg/mL; against Pseudomonas aeruginosa, > 100 µg/mL; against Staphylococcus aureus it was > 100 µg/mL; in the experiment with Enterococcus faecalis, > 100 µg/mL.
On to `CC(C)C[C@@H]1NC(=O)[C@H](CCC(N)=O)NC(=O)[C@H](C(C)C)NC(=O)[C@@H]2CCCN2C(=O)[C@@H](Cc2ccc(O)cc2)NC(=O)[C@H](CC(C)C)NC(=O)[C@H](CCC(N)=O)NC(=O)[C@H](C(C)C)NC(=O)[C@@H]2CCCN2C(=O)[C@@H](Cc2ccc(O)cc2)NC1=O`, for which the MIC against Streptococcus agalactiae, in the experiment on Streptococcus pyogenes (setting [1]), against Escherichia coli, against Pseudomonas aeruginosa, in the experiment on Staphylococcus aureus and in the experiment on Enterococcus faecalis was > 100 µg/mL throughout.
`CC(C)C[C@@H]1NC(=O)[C@H](CCC(N)=O)NC(=O)[C@H](C(C)C)NC(=O)[C@@H]2CCCN2C(=O)[C@@H](Cc2ccc(I)cc2)NC(=O)[C@H](CC(C)C)NC(=O)[C@H](CCC(N)=O)NC(=O)[C@H](C(C)C)NC(=O)[C@@H]2CCCN2C(=O)[C@@H](Cc2ccc(I)cc2)NC1=O`: the MIC in the experiment on Streptococcus agalactiae is > 100 µg/mL; in the experiment with Streptococcus pyogenes (setting [1]) it was 10 µg/mL (≈ 7.04 µM); with Escherichia coli it was > 100 µg/mL; in the experiment with Pseudomonas aeruginosa, > 100 µg/mL; in the experiment on Staphylococcus aureus it was > 100 µg/mL; in the experiment on Enterococcus faecalis it was > 100 µg/mL.

(Values after ChEMBL document CHEMBL1255543, “On resin amino acid side chain attachment strategy for the head to tail synthesis of new glutamine containing gramicidin-S analogs and their antimicrobial activity” (2010).)
